Laboratory results taken from patent US12612360B2 (Sanofi, priority 2020, dated 2026).

Molecular target: T1, ERα (Homo sapiens, UniProt P03372)
T1 construct: host or cells: MCF7
T1 sequence (P03372 1-595): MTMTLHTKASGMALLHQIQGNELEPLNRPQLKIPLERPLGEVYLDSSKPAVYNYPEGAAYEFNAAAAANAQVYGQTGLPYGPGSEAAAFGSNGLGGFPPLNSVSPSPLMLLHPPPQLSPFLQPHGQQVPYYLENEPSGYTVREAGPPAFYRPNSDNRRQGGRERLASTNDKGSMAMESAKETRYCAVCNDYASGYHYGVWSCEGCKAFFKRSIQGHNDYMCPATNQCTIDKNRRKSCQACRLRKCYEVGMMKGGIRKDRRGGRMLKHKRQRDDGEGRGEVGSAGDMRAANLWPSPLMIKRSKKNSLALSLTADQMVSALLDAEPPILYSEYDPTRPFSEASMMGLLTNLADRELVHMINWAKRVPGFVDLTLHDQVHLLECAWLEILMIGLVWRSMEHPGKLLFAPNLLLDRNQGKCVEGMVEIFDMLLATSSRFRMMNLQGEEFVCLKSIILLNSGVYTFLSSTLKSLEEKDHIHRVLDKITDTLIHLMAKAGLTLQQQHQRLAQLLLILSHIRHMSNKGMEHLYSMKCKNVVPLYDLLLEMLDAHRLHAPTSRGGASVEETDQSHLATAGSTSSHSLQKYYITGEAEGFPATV
Experiment: Estrogen receptor degradation activity: breast cancer cell ERα in cell western assay (MCF7 cells)
Assay type: cell-based
Details: for % Degradation At 0.3 μM: 4 hours, relative to fulvestrant 0.1 μM positive control; for DC50: 4 hours post compound addition, concentration which degrades 50% of the estrogen receptor, read-out: Degradation IC50
How it was run: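 In-cell western readout: ERα immunofluorescence (Alexa 488) normalised to DNA signal (Syto-64) after formalin fixation. Compounds dosed for 4 h on MCF7 cells in stripped-serum, phenol-red-free medium over nine 1:5 steps, 0.3 to […] final; fulvestrant 0.1 μM control. IC50 in nM for 50% ERα degradation.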

Row | SMILES | % Degradation At 0.3 μM [%] | DC50 [nM]
1 | Cc1cc(F)ccc1C1=C(c2ccc(C=C3CN(CCCF)C3)cc2F)c2ccc(C(=O)O)cc2CCC1 [Example 11, 8-(4-fluoro-2-methylphenyl)-9-(2-fluoro-4-((1-(3-fluoropropyl)azetidin-3-ylidene)methyl)phenyl)-6,7-dihydro-5H-benzo[7]annulene-3-carboxylic acid] | 91 | 0.3
2 | O=C(O)c1ccc2c(c1)CCCC(c1cccc(F)c1C(F)(F)F)=C2c1ccc(C=C2CN(CCC(F)F)C2)cc1 [Example 26, 9-(4-((1-(3,3-difluoropropyl)azetidin-3-ylidene)methyl)phenyl)-8-(3-fluoro-2-(trifluoromethyl)phenyl)-6,7-dihydro-5H-benzo[7]annulene-3-carboxylic acid] | 91 | 0.4
3 | O=C(O)c1ccc2c(c1)CCCC(c1ccc(C3CC3)cc1C(F)(F)F)=C2c1ccc(C=C2CN(CCCF)C2)cc1 [Example 141, 8-(4-cyclopropyl-2-(trifluoromethyl)phenyl)-9-(4-((1-(3-fluoropropyl)azetidin-3-ylidene)methyl)phenyl)-6,7-dihydro-5H-benzo[7]annulene-3-carboxylic acid] | 88 | 0.4
4 | FCCCN1CC(=Cc2ccc(C3=C(c4ccccc4Cl)CCCc4ccccc43)cc2)C1 [Example 120, 3-(4-(8-(2-chlorophenyl)-6,7-dihydro-5H-benzo[7]annulen-9-yl)benzylidene)-1-(3-fluoropropyl)azetidine] | 98 | 2.68
5 | O=C(O)c1ccc2c(c1)CCCC(c1ccc(F)c(F)c1F)=C2c1ccc(C=C2CN(CCCF)C2)cc1 [Example 135, 9-(4-((1-(3-fluoropropyl)azetidin-3-ylidene)methyl)phenyl)-8-(2,3,4-trifluorophenyl)-6,7-dihydro-5H-benzo[7]annulene-3-carboxylic acid] | 96 | 0.5
6 | CC1CCc2cc(C(=O)O)ccc2C(c2ccc(C=C3CN(CCCF)C3)cc2)=C1c1ccc(Cl)cc1 (single isomer, unassigned) [Example 179, 8-(4-chlorophenyl)-9-(4-((1-(3-fluoropropyl)azetidin-3-ylidene)methyl)phenyl)-7-methyl-6,7-dihydro-5H-benzo[7]annulene-3-carboxylic acid] | 91 | 1.4
7 | O=C(O)c1ccc2c(c1)CCCC(c1cccc(F)c1C(F)(F)F)=C2c1ccc(C=C2CN(CCCF)C2)cc1 [Example 24, 8-(3-fluoro-2-(trifluoromethyl)phenyl)-9-(4-((1-(3-fluoropropyl)azetidin-3-ylidene)methyl)phenyl)-6,7-dihydro-5H-benzo[7]annulene-3-carboxylic acid] | 95 | 0.2
8 | O=C(O)c1ccc2c(c1)CCCC(c1cccc(Cl)c1C(F)(F)F)=C2c1ccc(C=C2CN(CCC(F)(F)F)C2)cc1 [Example 107, 8-(3-chloro-2-(trifluoromethyl)phenyl)-9-(4-((1-(3,3,3-trifluoropropyl)azetidin-3-ylidene)methyl)phenyl)-6,7-dihydro-5H-benzo[7]annulene-3-carboxylic acid] | 93 | 1.3
9 | Cc1c(C=C2CN(CCCF)C2)ccc(C2=C(c3ccc(Cl)cc3Cl)CCCc3cc(C(=O)O)ccc32)c1F.Cl [Example 74, 8-(2,4-dichlorophenyl)-9-(2-fluoro-4-((1-(3-fluoropropyl)azetidin-3-ylidene)methyl)-3-methylphenyl)-6,7-dihydro-5H-benzo[7]annulene-3-carboxylic acid hydrochloride] | 92 | 0.5
10 | O=C(O)c1ccc2c(c1)CCCC(c1cc(F)cc(C(F)(F)F)c1)=C2c1ccc(C=C2CN(CCCF)C2)cc1 [Example 155, 8-(3-fluoro-5-(trifluoromethyl)phenyl)-9-(4-((1-(3-fluoropropyl)azetidin-3-ylidene)methyl)phenyl)-6,7-dihydro-5H-benzo[7]annulene-3-carboxylic acid] | 91 | 0.3
11 | O=C(O)c1ccc2c(c1)CCCC(c1ccc(Cl)cc1F)=C2c1ccc(C=C2CN(CCCF)C2)cc1 [Example 58, 8-(4-chloro-2-fluorophenyl)-9-(4-((1-(3-fluoropropyl)azetidin-3-ylidene)methyl)phenyl)-6,7-dihydro-5H-benzo[7]annulene-3-carboxylic acid] | 99 | 0.2
12 | O=C(O)c1ccc2c(c1)CCCC(c1ccc(C(F)(F)F)cc1C(F)(F)F)=C2c1ccc(C=C2CN(CCCF)C2)cc1 [Example 16, 8-(2,4-bis(trifluoromethyl)phenyl)-9-(4-((1-(3-fluoropropyl)azetidin-3-ylidene)methyl)phenyl)-6,7-dihydro-5H-benzo[7]annulene-3-carboxylic acid] | 93 | 0.4
13 | O=C(O)c1ccc2c(c1)CCCC(Cc1ccccc1)=C2c1ccc(C=C2CN(CCCF)C2)cc1 [Example 167, 8-benzyl-9-(4-((1-(3-fluoropropyl)azetidin-3-ylidene)methyl)phenyl)-6,7-dihydro-acid] | 89 | 1.1
14 | O=C(O)c1ccc2c(c1)CCCC(c1ccc(F)cc1F)=C2c1cc(F)c(C=C2CN(CCCF)C2)c(F)c1 [Example 59, 9-(3,5-difluoro-4-((1-(3-fluoropropyl)azetidin-3-ylidene)methyl)phenyl)-8-(2,4-difluorophenyl)-6,7-dihydro-5H-benzo[7]annulene-3-carboxylic acid] | 93 | 0.4
15 | Cc1cc(C2=C(c3ccc(C=C4CN(CCCF)C4)cc3)c3ccc(C(=O)O)cc3CCC2)cc(C(F)(F)F)c1 [Example 145, 9-(4-((1-(3-fluoropropyl)azetidin-3-ylidene)methyl)phenyl)-8-(3-methyl-5-(trifluoromethyl)phenyl)-6,7-dihydro-5H-benzo[7]annulene-3-carboxylic acid] | 85 | 4.3
16 | Cc1cccc(C2=C(c3ccc(C=C4CN(CCCF)C4)cc3)c3ccc(C(=O)O)cc3CCC2)c1C(F)(F)F [Example 118, 9-(4-((1-(3-fluoropropyl)azetidin-3-ylidene)methyl)phenyl)-8-(3-methyl-2-(trifluoromethyl)phenyl)-6,7-dihydro-5H-benzo[7]annulene-3-carboxylic acid] | 93 | 0.4
17 | O=C(O)c1ccc2c(c1)CCCC(c1cccc3c1CCC3)=C2c1ccc(C=C2CN(CCCF)C2)cc1 [Example 10, 8-(2,3-dihydro-1H-inden-4-yl)-9-(4-((1-(3-fluoropropyl)azetidin-3-ylidene)methyl)phenyl)-6,7-dihydro-5H-benzo[7]annulene-3-carboxylic acid] | 90 | 0.2
18 | O=C(O)c1ccc2c(c1)CCCC(c1cc(C(F)(F)F)ccc1C(F)(F)F)=C2c1ccc(C=C2CN(CCCF)C2)cc1 [Example 151, 8-(2,5-bis(trifluoromethyl)phenyl)-9-(4-((1-(3-fluoropropyl)azetidin-3-ylidene)methyl)phenyl)-6,7-dihydro-5H-benzo[7]annulene-3-carboxylic acid] | 90 | 0.2
